The nature of the data set: gradient 5% acetonitrile 3 min, to 50% in 2 min, to 85% in 15 min, held 3 min, 100 µL/min. The note with it: column: Zorbax Extend-C18 2.1 x 50 mm; eluents: water / acetonitrile, 0.1% formic acid. The gist of the method:
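The mobile phases were water and acetonitrile, each with 0.1% formic acid, pumped at 100 μL/min through a Zorbax Extend-C18 column (2.1 × 50 mm, 1.8 μm). Pure standards were injected as mixtures of ~100 molecules and detected by a quadrupole time-of-flight mass spectrometer in positive and negative ionization mode. Retention time came from computationally picked adduct peaks, each inspected by hand.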
For the compound `Cc1nnc(-c2ccc(S(=O)(=O)N3CCC(C)CC3)o2)o1`, the RP-LC retention time stood at 815 s.
With `Cc1cc(NS(=O)(=O)c2ccc(-c3c(C)noc3C)cc2)ccc1Br`, the RP-LC retention time is 1030 s.
As for `CCCNC(=O)Cn1c(=O)cc(-c2nc(C(C)C)no2)c2ccccc21`, the RP-LC retention time stood at 835 s.
Compound `COCCN1C(=O)c2cccn2CC1CNC(=O)c1sccc1C` (centres undefined) showed an RP-LC retention time of 689 s.
In the case of `O=S(=O)(c1cc(-c2nnc(C3CCCC3)o2)co1)N1CCCCCC1` it was 1050 s; in that of `COC(=O)c1ccc(S(=O)(=O)N2CCN(S(=O)(=O)C3CC3)CC2)cc1`, 878 s.
The result for `O=C(CCc1nc2ccccc2n(CC(=O)NC2CCc3ccccc32)c1=O)NC1CCCCC1` (centres undefined) reads 879 s.
In the case of `Cc1ccc(N2CCN(C(=O)c3cn4cc(C)ccc4n3)CC2)cc1` it was 690 s.
Compound `O=C(NCC1CCN(C(=O)COc2ccccc2)CC1)c1ccc(Br)o1` returned an RP-LC retention time of 722 s.
In the case of `O=C(NCc1csc(C2CCN(C(=O)C3CCCO3)CC2)n1)C1CC1` (centres undefined) it was 614 s; in that of `CCCc1cc(C2CCCN2C(=O)c2ccc(OC)c(OC)c2)no1` (centres undefined), 793 s; in that of `CCN(CC)C(=O)c1ccc(-c2nc3cc(NS(=O)(=O)c4cccs4)ccc3n2C)cc1`, 679 s.
In the case of `CCCn1cc(S(=O)(=O)Nc2ccc(Cl)cc2)c2cccnc21` it was 942 s; in that of `O=C(NC1CCCC1)c1ccc2ccnc(N3CCN(c4ccccc4)CC3)c2c1`, 776 s; in that of `COC(=O)c1sccc1NC(=O)N1CCCC1c1cccc(C)c1` (centres undefined), 1120 s.
Compound `Cc1csc(NC(=O)CSc2ccc(-c3cccs3)nn2)n1` gave an RP-LC retention time of 750 s.
For the compound `CCCn1cc(CCNS(=O)(=O)c2cccc(OC)c2)c2cccnc21`, the RP-LC retention time came out at 837 s.
In the case of `COC(=O)C1=CN(C2CC2)c2cc(N3CCN(C4CCCCC4)CC3)c(F)cc2S1(=O)=O` it was 643 s; in that of `Cc1ccc(NC(=O)CN2CCC(C(=O)NCc3c(F)cccc3F)CC2)c(C)c1`, 585 s; in that of `O=C(NCc1ccccc1)C1CN(S(=O)(=O)c2cccnc2)CC12CCCCC2` (centres undefined), 864 s.
The result for `CC1=C(c2ccc(C)c(C)c2)S(=O)(=O)N=C1N1CCCN(C(=O)NC2CCCC2)CC1` reads 876 s; that for `C=CCN1CCN(c2nc3cc(C(=O)OC)ccc3c(=O)n2-c2cccc(Cl)c2)CC1`, 681 s; that for `Cc1nc2cc(N3CC(C(=O)NCc4ccc(Cl)cc4)CC3=O)ccc2o1` (centres undefined), 743 s.
Regarding `CN(C1CCc2nn(C)c(=O)n2CC1)S(=O)(=O)c1ccccc1Cl` (centres undefined), the RP-LC retention time worked out at 865 s.
In the case of `CCOc1ccc(NC(=O)NC2CCN(c3cc(C)cc(C)c3)C2=O)cc1` (centres undefined) it was 886 s; in that of `Cc1ccc(-n2nc3c(N4CCCC(C(=O)NCCc5cccs5)C4)nnc(C)c3c2C)cc1` (centres undefined), 748 s.
The result for `CCOc1ccc(NC(=O)Cn2c(=O)nc(N3CCC(C)CC3)c3ccccc32)cc1` reads 845 s; that for `COCCN1C(=O)CCc2cc(NS(=O)(=O)c3ccccc3Br)ccc21`, 763 s; that for `Cc1ccc(-c2cn3c(CC(=O)NC4CCC(C)CC4)csc3n2)cc1C` (centres undefined), 938 s.
As for `O=c1c2sccc2n(Cc2nc(-c3ccc(Cl)cc3)no2)c(=O)n1-c1ccccc1F`, the RP-LC retention time was determined as 1070 s.
Compound `Cc1cnc(C(=O)N2CCCC2c2nc(CCOCC3CCCC3)no2)cn1` (centres undefined) showed an RP-LC retention time of 903 s.
The compound `CCn1c(=O)sc2cc(S(=O)(=O)N3CCC(C(=O)Nc4ccc(C)c(F)c4)CC3)ccc21` gave an RP-LC retention time of 979 s.
In the case of `Cc1cc(=O)n(CC(=O)NCc2ccc3c(c2)OCO3)c(N2CCCCC2)n1` it was 945 s.
The result for `O=C(C1CCN(c2nnc(-c3ccccc3)o2)CC1)N1CCN(c2ccccc2)CC1` reads 857 s.
In turn, `CN1c2cc(Cl)ccc2C(=O)NC12CCN(C(=O)NCc1ccccc1)CC2` showed an RP-LC retention time of 795 s.
Take `COc1ccc(-c2nnc(SCc3cc(=O)n4ccsc4n3)o2)cc1`: the RP-LC retention time stood at 722 s.
Regarding `O=C(Nc1ccccc1)N1CCC(n2cnc3ccc(F)cc3c2=O)CC1`, the RP-LC retention time amounted to 742 s.
The result for `CCn1cc(-c2nc(CC(=O)Nc3ccc(F)cc3C)cs2)c2cccnc21` reads 902 s; that for `Cc1cc(C)nc(Nc2nc(C(=O)NCCn3nc(-c4ccco4)ccc3=O)cs2)n1`, 693 s.
In the case of `CN1CC=C(c2noc(CCC(=O)NCc3ccc4c(c3)OCO4)n2)CC1`, the RP-LC retention time came out at 587 s.
Compound `Cc1ccnc(NC(=O)C2CCCN(c3ncnc4c3nc3n4CCCCC3)C2)c1` (centres undefined) showed an RP-LC retention time of 643 s.
The result for `CCOc1ccc(Nc2nc(-c3nnn(-c4ccc(OCC)cc4)c3C)ns2)cc1` reads 1130 s; that for `Cc1ccc(NC(=O)Cn2nc3cc(-c4ccccc4)nc(C)n3c2=O)c(C)c1`, 985 s; that for `COc1ccc(C(=O)N2C[C@@H]3C[C@H]2C[C@@H]3NS(=O)(=O)c2ccccc2)cn1`, 716 s.
The result for `CCOC(=O)CNC(=O)N1CC(n2cc(COc3ccc(F)cc3)nn2)C1` reads 692 s; that for `COCCN1CCn2cc(S(=O)(=O)Nc3ccc(F)cc3Cl)cc2C1=O`, 725 s; that for `Cn1cc2c(N3CCSCC3)nc(C(=O)N3CCN(C4CCCC4)CC3)nc2n1`, 579 s.
The result for `COc1ccc(S(=O)(=O)Cc2nc(-c3cccc(Br)c3)no2)cc1` reads 1090 s; that for `O=C(NC1CC1)c1cc(N2CCCC2)nc2ccccc12`, 577 s; that for `CN(C)C[C@@H]1CN(S(C)(=O)=O)C[C@H]1NC(=O)Cn1c(=O)oc2ccccc21`, 575 s.
On to `COc1ccc(S(=O)(=O)N2CCC(n3cnnc3C(C)C)CC2)cc1`, for which the RP-LC retention time is 694 s.
The result for `Cc1ccn2cc(C(=O)NCc3cccs3)nc2c1` reads 591 s; that for `Cc1cccc2c(=O)n(C3CCN(C(=O)Nc4ccc(F)cc4)CC3)cnc12`, 765 s; that for `O=C(O)c1cccc(Nc2c(-c3cccc(O)c3)nc3cnccn23)c1`, 633 s.
In the case of `C#C[C@]1(O)CCC2C3CCC4=CC(=O)CCC4C3C(=C)CC21CC` (some centres undefined) it was 991 s; in that of `Cn1cc(CN2C[C@@H](COc3cccnc3)[C@H](c3ccccn3)C2)cn1`, 528 s; in that of `CCCCOC(=O)C1=C(C)NC(=O)NC1c1ccc(OCCC)c(OC)c1` (centres undefined), 884 s.
The compound `COc1cccc(C(=O)N2CCc3c(c(-c4nc(C5CC5)no4)nn3C)C2)c1` gave an RP-LC retention time of 800 s.
The compound `CCNS(=O)(=O)c1cccnc1Nc1ccccc1` yielded an RP-LC retention time of 904 s.
On to `COc1ccc(-c2nc(C3CC(=O)N(c4ccc(F)cc4)C3)no2)cc1F` (centres undefined), for which the RP-LC retention time worked out at 969 s.
With `Cc1[nH]c(C(=O)N2CCCC(C(=O)NCc3ccccc3F)C2)c(C)c1C(=O)OC(C)C` (centres undefined), the RP-LC retention time came to 860 s.
The result for `NC(=O)c1ccccc1NC(=O)NC1CC(=O)N(c2ccc(Cl)cc2)C1` (centres undefined) reads 667 s.
As to `COc1cc(Cl)c(C)cc1-n1ccn(Cc2c(F)cccc2Cl)c(=O)c1=O`, the RP-LC retention time was 855 s.
In the case of `CC1(C)N=C(N)N=C(N)N1c1ccc(OCCCOc2ccccc2)c(Cl)c1` it was 812 s; in that of `CCOc1ccc(C2Cn3nnc(-c4nc(-c5ccccc5Br)no4)c3CO2)cc1` (centres undefined), 1230 s.
In the case of `Cc1cc(Nc2cccc(C(C)O)c2)nc(-n2cc([N+](=O)[O-])cn2)n1` (centres undefined) it was 690 s; in that of `CCOc1ccc(NC(=O)c2cnc3c(c2)c(=O)n(C)c(=O)n3-c2ccc(F)cc2)cc1`, 866 s; in that of `Cc1nc(-c2ccc(N3CCN(C(=O)c4n[nH]c5ccccc45)CC3)nc2)sc1C`, 864 s.
For `O=C(Nc1ccc2c(c1)OCCO2)N1CCCCC1c1nc(CCOCC2CC2)no1` (centres undefined), the RP-LC retention time amounted to 878 s.
The result for `Cn1cc(S(=O)(=O)N2CCC(C(=O)NC3CC3)CC2)cc1C(=O)N1CCCC1` reads 641 s; that for `O=C(NCc1cccc(Cl)c1)C1CCCN(c2nc3ncccc3n3cccc23)C1` (centres undefined), 664 s; that for `COc1ccc(NC(=O)N2CC=C(c3cn(C(C)C)c4ncccc34)CC2)cc1F`, 920 s.
The result for `CC(=O)Nc1nnc(SCc2nnc(-c3ccc4c(c3)OCO4)o2)s1` reads 678 s; that for `Cc1noc(C2CN(C(=O)Cc3ccccc3)CC23CCN(C)CC3)n1` (centres undefined), 920 s.
In the case of `CCc1nc2cccnc2n1CCN1CCN(C(=O)Nc2cccc(Br)c2)CC1` it was 616 s.
As for `Cc1ccc(C2Cn3cnc(C(=O)N4CCC(C(=O)NCc5cc(F)ccc5F)CC4)c3CO2)cc1` (centres undefined), the RP-LC retention time was found to be 808 s.
Compound `O=C(NCc1ccc(F)cc1)c1nnc(-c2ccc(S(=O)(=O)N3CCCCC3)cc2)o1` registered an RP-LC retention time of 1160 s.
In the case of `CC(C)NC(=O)CCC(=O)N1CCc2c(c(C(=O)N3CCCCC3)nn2C)C1`, the RP-LC retention time stood at 617 s.
In the case of `CN(C)c1cccc(C(=O)NC2CCN(c3cc(-c4ccc(F)cc4)[nH]n3)C2)c1` (centres undefined) it was 684 s.

The values above are taken from the METLIN SMRT retention time set (Domingo-Almenara et al. 2019).
